Source: patent US8778876B2, “Small-molecule inhibitors of Dengue and West Nile virus proteases” (The Board of Regents of the University of Texas System, priority 2011, dated 2014)
Entries after “also recorded” stand apart in the source; their conditions may differ. Counter-ions that a name gives are not always drawn. Like-named read-outs stand apart in the source and are kept apart here.

Key:
DEN2V NS2B-NS3pro [1] = molecular target: T1, DEN2V NS2B-NS3pro (Dengue virus type 2, UniProt Q91H74); test: Steady-state kinetics of inhibitors of DEN2V NS2B-NS3pro (Boc-GRR-AMC substrate, Dynafit); assay type: biochemical, Dengue 2 virus
[2] = molecular target: T2, Bovine pancreatic trypsin (Bos taurus, UniProt P00760); test: biochemical; assay type: biochemical
T2 construct: purchased Sigma Aldrich; host or cells: bovine pancreas
T2 sequence (P00760 24-246): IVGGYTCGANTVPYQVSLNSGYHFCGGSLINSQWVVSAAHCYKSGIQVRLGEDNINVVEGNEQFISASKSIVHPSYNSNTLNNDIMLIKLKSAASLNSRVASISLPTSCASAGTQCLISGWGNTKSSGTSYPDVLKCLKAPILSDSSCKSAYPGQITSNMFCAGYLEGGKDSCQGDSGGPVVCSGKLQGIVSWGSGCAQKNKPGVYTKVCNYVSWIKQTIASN

[3] = molecular target: T2, Bovine pancreatic trypsin; test: Trypsin inhibition assay with chromogenic BAPNA substrate; assay type: biochemical; conditions: analog at 100 μM
Procedure: Bovine pancreatic trypsin (Sigma Aldrich, St. Louis) and N-α-Benzoyl-DL-arginine 4-nitroanilide hydrochloride (BAPNA) substrate (Sigma Aldrich, St. Louis) were used for trypsin inhibition assays. Trypsin stock solutions were prepared in sodium phosphate buffer (67 mM [pH 7.6]). Trypsin (60 μM) was incubated with chromogenic BAPNA (500 μM) and release of the para-nitroanilide product monitored using a DU640 spectrophotometer (Beckman Coulter, USA) to measure absorption at 415 nm. The slope of the progress curve was determined using linear regression and used as a baseline for comparison with inhibitor reactions.

physchem = conditions: pH 9, aqueous with cosolvent or surfactant or cyclodextrin, kinetic from dmso stock
[4] = pH 9
DEN2V NS2B-NS3pro [5] = molecular target: T1, DEN2V NS2B-NS3pro; test: Preliminary DEN2V NS2B-NS3pro inhibition assay; assay type: biochemical, Dengue 2 virus; conditions: 100 nM protease, 100 μM Boc-GRR-AMC, 30 min at 25° C.; aprotinin at 100 μM
WNV NS2B-NS3pro = WNV NS2B-NS3pro (West Nile virus, UniProt P06935); test: Steady-state kinetics of inhibitors of WNV NS2B-NS3pro; assay type: biochemical; conditions: for Mechanism: Table 2, WNV NS2B-NS3pro
DENV; WNV protease = assay type: biochemical, Dengue virus; West Nile virus
cells = conditions: Yip et al., 2006; cited from earlier work
[6] = Ki1 (from biochemical protease inihibition experiments) West Nile virus NS2B-NS
[7] = Table 1, DEN2V NS2B-NS3pro, HTS-identified hits

T1 sequence (Q91H74 entry or part of it, added parts left off): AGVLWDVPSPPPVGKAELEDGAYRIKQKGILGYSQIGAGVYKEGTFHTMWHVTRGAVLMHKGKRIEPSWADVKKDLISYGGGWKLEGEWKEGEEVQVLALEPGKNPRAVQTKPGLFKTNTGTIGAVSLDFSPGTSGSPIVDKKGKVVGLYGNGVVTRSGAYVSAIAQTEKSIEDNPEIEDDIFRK
T1 sequence (Q91H74 entry or part of it partner, added parts left off): as the sequence (Q91H74 entry or part of it, added parts left off) above
WNV NS2B-NS3pro, sequence (P06935 1502-1679 limits assumed): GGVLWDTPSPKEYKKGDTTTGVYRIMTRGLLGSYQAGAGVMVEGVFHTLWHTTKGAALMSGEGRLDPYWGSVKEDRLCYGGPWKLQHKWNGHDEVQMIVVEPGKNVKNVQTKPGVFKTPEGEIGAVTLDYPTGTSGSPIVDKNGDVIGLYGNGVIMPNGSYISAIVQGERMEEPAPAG
WNV NS2B-NS3pro, sequence (P06935 1424-1463 partner limits assumed): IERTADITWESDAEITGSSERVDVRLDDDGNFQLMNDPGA

O=C1c2c(O)ccc([N+](=O)[O-])c2C(=O)c2c([N+](=O)[O-])ccc(O)c21 [ARDP0006, reference compound]
Ki (DEN2V NS2B-NS3pro [1]; Ki1, Table 4, ARDP0006 analogs, DEN2V NS2B-NS3pro): 432 ± 46 µM
Mechanism (DEN2V NS2B-NS3pro [1]; Table 4, ARDP0006 analogs, DEN2V NS2B-NS3pro): competitive inhibition model
Mechanism (trypsin inhibition) [2]: uncompetitive trypsin inhibitor
Ki ([2]; Ki2 trypsin): 13 µM
Inhibition of trypsin cleavage of the chromogenic substrate [3]: not the chromogenic substrate
solubility (physchem): > 10 µM

O=P(=O)c1ccc(OC2OCC(O)C(O)C2O)cc1 (stereo not drawn) [Compound 6A31]
solubility [4]: NS (key: compounds soluble in aqueous buffer were indicated with “S”; insoluble compounds indicated with “NS.”)

Nc1ccc(N)c2c1C(=O)c1c(N)ccc(N)c1C2=O [Compound 6A42]
Mechanism (trypsin inhibition) [2]: mixed noncompetitive trypsin inhibitors; also recorded: inhibited both the DEN2V NS2B-NS3 protease and trypsin
Ki ([2]; Ki1 trypsin): 60 ± 13 µM
Ki ([2]; Ki2 trypsin): 167 ± 20 µM
Inhibition of DEN2V NS2B-NS3pro in the preliminary inhibition assay (DEN2V NS2B-NS3pro [5]): significant inhibition

O=C1c2c(O)cccc2Cc2cccc(O)c21 [Compound 6A45]
Ki (WNV NS2B-NS3pro; [6]): 2 µM
Mechanism (trypsin inhibition) [2]: competitive trypsin inhibitors; also recorded: inhibited both the DEN2V NS2B-NS3 protease and trypsin
Ki ([2]; Ki1 trypsin): 0.6 ± 0.07 µM
Inhibition of DEN2V NS2B-NS3pro in the preliminary inhibition assay (DEN2V NS2B-NS3pro [5]): significant inhibition
solubility (physchem): > 10 µM

O=C1c2ccc(O)cc2C(=O)c2c1ccc(O)c2O [Compound 6A47]
Mechanism (trypsin inhibition) [2]: mixed noncompetitive trypsin inhibitors; also recorded: inhibited both the DEN2V NS2B-NS3 protease and trypsin
Ki ([2]; Ki1 trypsin): 4 µM
Ki ([2]; read-out: Ki2 trypsin): 25 ± 3 µM
Inhibition of DEN2V NS2B-NS3pro in the preliminary inhibition assay (DEN2V NS2B-NS3pro [5]): significant inhibition
solubility (physchem): > 10 µM

O=[N+]([O-])c1ccc(N=Nc2ccc(O)c3ccccc23)c([N+](=O)[O-])c1 [Compound 6A49]
Ki (WNV NS2B-NS3pro; [6]): 34 µM
Ki (WNV NS2B-NS3pro; WNpro Ki1): 34 µM
Mechanism (trypsin inhibition) [2]: did not inhibit trypsin; also recorded: No inhibition
Inhibition of DEN2V NS2B-NS3pro in the preliminary inhibition assay (DEN2V NS2B-NS3pro [5]): significant inhibition
Protease inhibited in Knock-down (DENV; WNV protease): DENV; WNV
solubility (physchem): > 10 µM

COc1cc(O)c2c(=O)c3c(O)ccc(OCl)c3oc2c1 [Compound 6A63]
Solubility in the kinetic reaction buffer [4]: not soluble
solubility (physchem): < 10 µM

O=[N+]([O-])c1ccc(/C=N/c2ccc(O)c3ccccc23)c([N+](=O)[O-])c1 [Compound 260]
Ki (DEN2V NS2B-NS3pro [1]; Denpro Ki1): 52 µM
Ki (DEN2V NS2B-NS3pro [1]; Denpro Ki2): 5 µM
Ki (WNV NS2B-NS3pro; WNpro Ki1): 14 µM
Ki (WNV NS2B-NS3pro; WNpro Ki2): 5 µM
Protease inhibited in Knock-down (DENV; WNV protease): DENV; WNV

O=C(Nc1ccc(O)c2ccccc12)c1ccc([N+](=O)[O-])cc1[N+](=O)[O-] [Compound 273]
Ki (DEN2V NS2B-NS3pro [1]; Denpro Ki1): < 223 µM
Ki (WNV NS2B-NS3pro; WNpro Ki1): < 169 µM
Ki (WNV NS2B-NS3pro; WNpro Ki2): < 186 µM
Protease inhibited in Knock-down (DENV; WNV protease): DENV; WNV

Oc1cc2ccc(/N=N/c3ccc4c(c3)OCO4)cc2cc1O [Compound 290]
Ki (DEN2V NS2B-NS3pro [1]; Denpro Ki2): < 8.5 µM
Ki (WNV NS2B-NS3pro; WNpro Ki2): < 6 µM
Protease inhibited in Knock-down (DENV; WNV protease): DENV; WNV

Oc1ccc2cc(/N=N/c3ccc4c(c3)OCO4)c(O)cc2c1 [Compound 292]
Protease inhibited in Knock-down (DENV; WNV protease): WNV

O=[N+]([O-])c1cc(/N=N/c2ccc3cc(O)c(O)cc3c2)ccc1O [Compound 293]
Ki (DEN2V NS2B-NS3pro [1]; Denpro Ki1): 432 µM
Ki (DEN2V NS2B-NS3pro [1]; Denpro Ki2): 29 µM
Ki (WNV NS2B-NS3pro; WNpro Ki2): 20 µM
Protease inhibited in Knock-down (DENV; WNV protease): DENV

Oc1ccc2c(/N=N/c3ccc4c(c3)OCO4)ccc(O)c2c1 [Compound 296]
Ki (DEN2V NS2B-NS3pro [1]; Denpro Ki1): 215 µM
Ki (DEN2V NS2B-NS3pro [1]; Denpro Ki2): 62 µM
Ki (WNV NS2B-NS3pro; WNpro Ki2): 116 µM
Protease inhibited in Knock-down (DENV; WNV protease): DENV; WNV

O=[N+]([O-])c1cc(/N=N/c2ccc(O)c3cc(O)ccc23)ccc1O [Compound 297]
Ki (DEN2V NS2B-NS3pro [1]; Denpro Ki2): 85 µM
Ki (WNV NS2B-NS3pro; WNpro Ki2): 61 µM
Protease inhibited in Knock-down (DENV; WNV protease): DENV; WNV

O=[N+]([O-])c1ccc(/N=N/c2ccc(O)c3cc(O)ccc23)c([N+](=O)[O-])c1 [Compound 298]
Ki (DEN2V NS2B-NS3pro [1]; Denpro Ki1): 40 µM
Ki (DEN2V NS2B-NS3pro [1]; Denpro Ki2): 4 µM
Ki (WNV NS2B-NS3pro; WNpro Ki1): 4 µM
Ki (WNV NS2B-NS3pro; WNpro Ki2): 2 µM
Protease inhibited in Knock-down (DENV; WNV protease): DENV; WNV

O=[N+]([O-])c1ccc(/N=N/c2ccc3cc(O)c(O)cc3c2)c(O)c1 [Compound 300]
Ki (DEN2V NS2B-NS3pro [1]; Denpro Ki1): 81 µM
Ki (DEN2V NS2B-NS3pro [1]; Denpro Ki2): 5 µM
Ki (WNV NS2B-NS3pro; WNpro Ki1): 3 µM
Ki (WNV NS2B-NS3pro; WNpro Ki2): 2 µM
Protease inhibited in Knock-down (DENV; WNV protease): DENV; WNV

Cc1ccc(O)c(/N=N/c2c(O)cc(O)c3ccccc23)c1 [Compound 301]
Protease inhibited in Knock-down (DENV; WNV protease): DENV; WNV

O=[N+]([O-])c1ccc(/N=N/c2c(O)cc(O)c3ccccc23)c(O)c1 [Compound 302]
Protease inhibited in Knock-down (DENV; WNV protease): DENV; WNV

CC(=O)Oc1cc2c(cc1OC(C)=O)[C@@H]1c3ccc(OC(C)=O)c(OC(C)=O)c3OC[C@]1(OC(C)=O)C2 [MS5, Haematoxylin pentaacetate]
Mechanism (DEN2V NS2B-NS3pro [1]; [7]): Mixed
Ki (DEN2V NS2B-NS3pro [1]; Table 1, DEN2V NS2B-NS3pro, read-out: Ki1): 16 ± 7 µM
Ki (DEN2V NS2B-NS3pro [1]; Table 1, DEN2V NS2B-NS3pro, read-out: Ki2): 5 ± 0.7 µM
Mechanism (WNV NS2B-NS3pro): Mixed
Inhibition in single-point knock-down assays with either protease (DENV; WNV protease; compound incubated with cleavage buffer overnight (complete oxidation)): no observable inhibition

CCCCC(CC)CNC(=N)NC(=N)NCCCCCCNC(=N)NC(=N)NCC(CC)CCCC (stereo not drawn) [MS28, Alexidine hydrochloride, reference compound]
Ki (DEN2V NS2B-NS3pro [1]; Ki1, Table 1, DEN2V NS2B-NS3pro): 41 ± 3 µM
Ki (DEN2V NS2B-NS3pro [1]; Ki2, Table 1, DEN2V NS2B-NS3pro): 84 ± 16 µM
Mechanism (DEN2V NS2B-NS3pro [1]; [7]): Mixed
Ki (WNV NS2B-NS3pro; Ki1, Table 2, WNV NS2B-NS3pro): 12 µM
Ki (WNV NS2B-NS3pro; Ki2, Table 2, WNV NS2B-NS3pro): 28 ± 5 µM
Mechanism (WNV NS2B-NS3pro): Mixed
ED50 (cell viability reduced by 50%) (cells): low micromolar

aprotinin [reference compound]
Inhibition of DEN2V NS2B-NS3pro in the preliminary inhibition assay (DEN2V NS2B-NS3pro [5]): fluorescence levels that were similar to that of the “substrate alone” background control
